Patent publication US7271171B2, “Adenosine A3 receptor modulators” (King Pharmaceuticals Research and Development, Inc., priority 1998, dated 2007)
Counter-ions that a name gives are not always drawn.

Assays:
[1] = molecular target: T1, human recombinant A1 adenosine receptor (Homo sapiens, UniProt P30542); assay: Human cloned A1 receptor binding, [3H]-DPCPX, CHO cells; conditions: read-out: hA1 (Ki)
T1 construct: expressed in transfected cells; host or cells: CHO
T1 sequence (P30542 1-326): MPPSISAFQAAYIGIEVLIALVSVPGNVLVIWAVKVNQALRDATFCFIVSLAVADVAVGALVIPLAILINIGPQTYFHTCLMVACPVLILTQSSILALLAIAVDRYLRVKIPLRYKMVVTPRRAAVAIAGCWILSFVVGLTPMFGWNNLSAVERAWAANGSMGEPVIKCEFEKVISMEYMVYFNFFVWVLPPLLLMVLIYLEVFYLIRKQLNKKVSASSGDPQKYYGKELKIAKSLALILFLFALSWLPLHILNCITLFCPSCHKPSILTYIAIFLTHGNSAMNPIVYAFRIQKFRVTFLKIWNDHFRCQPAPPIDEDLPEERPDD
Description: (§1) The expression of the human A1, A2A, A2B and A3 receptors in CHO cells has been previously described (Klotz et al., 1998). The cells are grown adherently and maintained in Dulbecco's modified Eagle's medium with nutrient mixture F12 without nucleosides at 37 ° C. in 5% CO2/95% air. Cells are split two or three times weekly and then the culture medium is removed for membrane preparations. The cells are washed with phosphate-buffered saline and scraped off flasks in ice cold hypotonic buffer (5 mM Tris HCl, 2 mM EDTA, pH 7.4). The cell suspension is homogenized with Polytron and the homogenate is centrifuged for 30 min. at 48,000 g. The membrane pellet is re-suspended in 50 mM Tris HCl buffer at pH 7.4 for A1 adenosine receptors, in 50 mM Tris HCl, 10 mM MgCl2 at pH 7.4 for A2A adenosine receptors, in 50 mM Tris HCl, 10 mM MgCl2, 1 mM EDTA at pH 7.4 for A3 adenosine receptors and are utilized for binding and adenylate cyclase assays.
Binding of [^3H]-DPCPX to CHO cells transfected with the human recombinant A1 adenosine receptor is performed according to the method previously described by Klotz and coworkers (Klotz, K. N.; Cristalli, G.; Grifantini, M.; Vittori, S.; Lohse, M. J., “Photoaffinity labeling of A1 adenosine receptors,” J. Biol. Chem., 260, 14659-14664, 1985).
(§2) Displacement experiments are performed for 120 min. at 25° C. in 0.20 mL of buffer containing 1 nM [^3H]-DPCPX, 20 μL of diluted membranes (50 μg of protein/assay) and at least 6-8 different concentrations of examined compounds. Non-specific binding is determined in the presence of 10 μM of CHA and this is always 10% of the total binding. Binding of [^3H]-SCH58261 to CHO cells transfected with the human recombinant A2A adenosine receptors (50 μg of protein/assay) was performed according to Varani et al. (Varani, K; Cacciari, B.; Baraldi, P. G.; Dionisotti, S.; Ongini, E.; Borea, P. A., “Binding affinity of adenosine receptor agonists and antagonists at human cloned […] adenosine receptors,” Life Sci., 63, 81-87, 1998). In competition studies, at least 6-8 different concentrations of compounds are used and non-specific binding is determined in the presence of 50 μM NECA for an incubation time of 60 min. at 25° C.

[2] = molecular target: T2, human recombinant A2A adenosine receptors (Homo sapiens, UniProt P29274); assay: Human cloned A2A receptor binding, [3H]-SCH58261, CHO cells; conditions: read-out: hA2A (Ki)
T2 construct: expressed in transfected cells; host or cells: CHO
T2 sequence (P29274 whole entry): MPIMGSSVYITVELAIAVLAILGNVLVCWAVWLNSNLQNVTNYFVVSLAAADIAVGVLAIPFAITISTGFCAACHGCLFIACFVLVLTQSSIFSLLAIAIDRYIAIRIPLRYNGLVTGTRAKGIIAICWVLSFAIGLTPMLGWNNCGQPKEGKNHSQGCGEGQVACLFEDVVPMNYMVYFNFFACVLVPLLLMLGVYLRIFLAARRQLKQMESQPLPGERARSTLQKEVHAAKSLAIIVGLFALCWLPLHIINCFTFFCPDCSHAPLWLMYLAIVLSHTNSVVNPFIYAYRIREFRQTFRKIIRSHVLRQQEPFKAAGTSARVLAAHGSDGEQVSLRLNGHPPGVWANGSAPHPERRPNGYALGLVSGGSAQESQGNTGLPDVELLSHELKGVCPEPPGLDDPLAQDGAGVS
Description: as §1, §2

[3] = molecular target: T3, human recombinant A2B adenosine receptors (Homo sapiens, UniProt P29275); assay: Human cloned A2B receptor binding, [3H]-DPCPX, HEK-293 cells; conditions: read-out: hA2B (Ki)
T3 construct: host or cells: HEK-293
T3 sequence (P29275 1-332): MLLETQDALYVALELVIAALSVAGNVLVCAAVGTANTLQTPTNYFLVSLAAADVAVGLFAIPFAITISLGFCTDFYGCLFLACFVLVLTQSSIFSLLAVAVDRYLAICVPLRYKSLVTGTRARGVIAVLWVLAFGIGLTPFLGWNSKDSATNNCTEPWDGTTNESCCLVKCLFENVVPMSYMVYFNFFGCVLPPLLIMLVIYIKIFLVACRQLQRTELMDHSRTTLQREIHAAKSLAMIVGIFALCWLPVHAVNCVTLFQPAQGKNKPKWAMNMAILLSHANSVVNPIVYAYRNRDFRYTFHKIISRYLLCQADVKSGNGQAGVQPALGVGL
Description: Binding of [^3H]-DPCPX to HEK-293 cells (Receptor Biology, Inc., Beltsville, Md.) transfected with the human recombinant A2B adenosine receptors is performed essentially to the method described by Varani and coworkers (Mol. Pharmacol.). In particular, assays are carried out for 60 min. at 25° C. in 0.1 mL of 50 mM Tris HCl Buffer, 10 mM MgCl2, 1 mM EDTA, 0.1 mM benzamidine pH 7.4, 2 IU/ml adenosine deaminase containing 40 nM [^3H]-DPCPX, diluted membranes (20 µg of protein/assay) and at least 6-8 different concentration of tested compounds. Non-specific binding is determined in the presence of 100 μM of NECA and is always 30% of the total binding.

[4] = molecular target: T4, adenosine A3 receptors in Jurkat cell membranes (Homo sapiens, UniProt P0DMS8); assay: Saturation binding of radioligand of Compound 108, Jurkat cell membranes
T4 construct: endogenous in cells; host or cells: Jurkat (human T-cell leukaemia)
T4 sequence (P0DMS8 1-318): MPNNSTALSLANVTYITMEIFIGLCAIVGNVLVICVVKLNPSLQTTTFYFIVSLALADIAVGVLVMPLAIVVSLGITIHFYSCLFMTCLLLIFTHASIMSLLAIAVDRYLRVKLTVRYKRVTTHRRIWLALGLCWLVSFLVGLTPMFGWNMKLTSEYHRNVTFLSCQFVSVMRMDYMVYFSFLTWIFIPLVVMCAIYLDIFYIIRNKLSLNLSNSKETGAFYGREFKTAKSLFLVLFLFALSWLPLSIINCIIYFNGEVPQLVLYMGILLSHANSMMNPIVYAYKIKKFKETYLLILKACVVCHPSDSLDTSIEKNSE

[5] = molecular target: T5, adenosine A3 receptors in HL60 membranes (Homo sapiens, UniProt P0DMS8); assay: Saturation binding of radioligand of Compound 108, HL60 membranes
T5 construct: endogenous in cells; host or cells: HL60 (promyelocytic human leukaemia)
T5 sequence (P0DMS8 1-318): T4 sequence (P0DMS8 1-318)

[6] = molecular target: T6, human recombinant A3 adenosine receptor (Homo sapiens, UniProt P0DMS8); assay: Human cloned A3 receptor binding, [3H] MRE3008-F20, CHO cells; design: expressed in transfected cells; host or cells: CHO; conditions: for Ki: CHO cells, [3H] MRE3008-F20, read-out: hA3 (Ki); for hA1/hA3 / hA2A/hA3 / hA2B/hA3: selectivity ratio of Ki values
T6 sequence (P0DMS8 1-318): T4 sequence (P0DMS8 1-318)
Description: The cells are grown adherently and maintained in Dulbecco's modified Eagle's medium with nutrient mixture F12 without nucleosides at 37 ° […] Cells are split two or three times weekly and then the culture medium is removed for membrane preparations. The cells are washed with phosphate-buffered saline and scraped off flasks in ice cold hypotonic buffer (5 mM Tris HCl, 2 mM EDTA, pH 7.4). The cell suspension is homogenized with Polytron and the homogenate is centrifuged for 30 min. at 48,000 g. The membrane pellet is re-suspended in 50 mM Tris HCl buffer at pH 7.4 for A1 adenosine receptors, in 50 mM Tris HCl, 10 mM MgCl2 at pH 7.4 for A2A adenosine receptors, in 50 mM Tris HCl, 10 mM MgCl2, 1 mM EDTA at pH 7.4 for A3 adenosine receptors and are utilized for binding and adenylate cyclase assays.

rA1 adenosine receptor = molecular target: T7, rA1 adenosine receptor (Rattus norvegicus, UniProt P25099); assay: Rat A1 adenosine receptor binding assay, [3H]CHA displacement, rat brain membranes
T7 construct: membranes of rat brain (150-200 μg- of protein/assay); from tissue; host or cells: whole brain of male Wistar rats
T7 sequence (P25099 1-326): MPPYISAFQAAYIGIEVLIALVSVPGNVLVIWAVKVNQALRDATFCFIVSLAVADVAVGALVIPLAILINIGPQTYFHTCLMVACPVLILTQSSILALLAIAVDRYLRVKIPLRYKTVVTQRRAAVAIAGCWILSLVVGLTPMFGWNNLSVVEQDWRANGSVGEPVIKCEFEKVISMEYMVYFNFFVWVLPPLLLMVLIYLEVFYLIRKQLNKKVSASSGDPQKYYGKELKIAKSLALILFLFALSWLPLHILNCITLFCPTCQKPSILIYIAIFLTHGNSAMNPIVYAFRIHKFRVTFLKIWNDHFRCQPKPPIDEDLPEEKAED
Description: (§3) Male Wistar rats (200-250 g) were decapitated and the whole brain and striatum dissected on ice. […] The homogenate was centrifuged at 48,000 for 10 min, and the pellet was resuspended in the same buffer containing 2 IU/mL adenosine deaminase. After 30 min incubation at 37° C., the membranes were centrifuged and pellets were stored at −80° C. Prior to freezing, an aliquot of homogenate was removed for protein assay with bovine albumin as reference standard. Binding assays were performed on rat brain and striatum membranes respectively, in the presence of 10 mM MgCl2 at 25° C.
(§4) Separation of bound from free radio ligand was performed by rapid filtration through Whatman GF/B filters which were washed three times with ice-cold buffer. Filter bound radioactivity was measured by scintillation spectrometry after addition of 5 mL of Aquassure. […] Ki values were calculated from the Cheng-Prusoff equation. All binding data were analyzed using the nonlinear regression curve-fitting computer program LIGAND.

rA2A adenosine receptor = molecular target: T8, rA2A adenosine receptor (Rattus norvegicus, UniProt P30543); assay: Rat A2A adenosine receptor binding assay, [3H]SCH58261 displacement, rat striatum membranes; conditions: rat striatum membranes, [3H]SCH58261; read-out: rA2A (Ki)
T8 construct: membranes of rat striatum (80-100 μmg of protein/assay); from tissue; host or cells: striatum of male Wistar rats
T8 sequence (P30543 whole entry): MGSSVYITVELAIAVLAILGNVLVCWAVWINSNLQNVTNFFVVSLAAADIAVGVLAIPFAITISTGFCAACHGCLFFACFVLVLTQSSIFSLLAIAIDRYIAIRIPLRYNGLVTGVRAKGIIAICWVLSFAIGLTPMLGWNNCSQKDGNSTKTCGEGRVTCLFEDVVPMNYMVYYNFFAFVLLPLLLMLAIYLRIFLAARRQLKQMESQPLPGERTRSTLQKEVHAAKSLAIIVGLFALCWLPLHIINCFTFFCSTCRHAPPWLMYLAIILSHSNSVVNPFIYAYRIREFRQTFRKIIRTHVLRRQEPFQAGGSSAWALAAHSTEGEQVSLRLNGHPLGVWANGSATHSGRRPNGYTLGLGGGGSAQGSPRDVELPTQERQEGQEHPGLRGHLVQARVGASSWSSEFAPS
Description: as §3, §4

[7] = molecular target: T6, human recombinant A3 adenosine receptor; assay: Human cloned A3 adenosine receptor binding assay, [125I]AB-MECA, HEK-293 membranes; design: USA; host or cells: HEK-293; conditions: for Ki: HEK-293 membranes, [125I]AB-MECA, read-out: hA3 (Ki); for rA1/hA3 / rA2A/hA3: selectivity ratio of Ki values

Ki [3] [µM] | Structure (SMILES) | Ki [1] [µM] | Ki [2] [µM] | Ki [6] [µM] | hA1/hA3 [6] | hA2A/hA3 [6] | other results
– | CCCn1cc2c(nc(NC(=O)Nc3ccc(OC)cc3)n3nc(-c4ccco4)nc23)n1 [Compound 108, 5-[[(4-methoxyphenyl)amino]carbonyl]amino-8-propyl-2-(2-furyl)-pyrazolo[4, 3]-e-1 ,2,4-triazolo[1,5-c]pyrimidine] | 1.2 | 0.141 | – | – | – | –
0.276 | CCN(CC)c1ccc(NC(=O)Nc2nc3nn(C)cc3c3nc(-c4ccco4)nn23)cc1 [Compound 102, N-[8-methyl-2-(2-furyl)-8H-pyrazolo[4,3-e][1,2,4]triazolo[1,5-c]pyrimidin-5-yl]-N′-[4-(diethylamino)phenyl]urea hydrochloride] | 0.68 | 0.593 | – | – | – | –
– | [3H]CC([3H])Cn1cc2c(nc(NC(=O)Nc3ccc(OC)cc3)n3nc(-c4ccco4)nc23)n1 (centres unmarked) [radioligand of Compound 108, 5-[[(4-methoxyphenyl)amino]carbonyl]amino-8-(1,2-ditritiopropyl)-2-(2-furyl)-pyrazolo[4,3-e]1,2,4-triazolo[1,5-c]pyrimidine] | – | – | – | – | – | Bmax value ([4]; Jurkat cell membranes, FIG. 4, n=3): 1.30±0.03 pmol/mg protein; A3 receptor density detected ([4]; Jurkat cells): approximately 1300 fmol/mg protein; Bmax value / A3 receptor density detected ([5]; FIG. 5): 626±42 fmol/mg protein; Bmax value / A3 receptor density detected ([5]; FIG. 5, listed as tritiated analogue of Compound 108): ~650 fmol/mg protein
0.35 | CCN(CC)c1ccc(NC(=O)Nc2nc3nn(C)cc3c3nc(-c4ccco4)nn23)cc1 [Compound 101, N-[4-(diethylamino)phenyl]-N′-[2-(2-furyl)-8-methyl-8H -pyrazolo[4,3-e][1,2,4]triazolo[1,5-c]pyrimidin-5-yl]urea] | 0.58 | 0.523 | – | – | – | –
– | CCn1cc2c(nc(NC(=O)Nc3ccc(OC)cc3)n3nc(-c4ccco4)nc23)n1 [Compound 109] | 1.03 | 1.04 | 0.00028 | 3660 | 3730 | –
0.609 | CN(C)c1ccc(NC(=O)Nc2nc3nn(C)cc3c3nc(-c4ccco4)nn23)cc1 [Compound 103, N-[8-methyl-2-(2-furyl)-8H-pyrazolo[4,3-e][1,2,4]triazolo[1,5-c]pyrimidin-5-yl]-N′-[4-(dimethylamino)phenyl]urea hydrochloride] | > 10 | > 10 | – | – | – | –
– | COc1ccc(NC(=O)Nc2nc3nn(CCC(C)C)cc3c3nc(-c4ccco4)nn23)cc1 [Compound 51, 5-[[(4-Methoxyphenyl)amino]carbonyl]amino-8-isopentyl-2-(2-furyl)-pyrazolo[4,3-e]1,2,4-triazolo[1,5-c]pyrimidine] | – | – | – | – | – | Ki (rA1 adenosine receptor): 0.476 µM; Ki (rA2A adenosine receptor): 0.376 µM; Ki [7]: 0.0296 µM; rA1/hA3 [7]: 16; rA2A/hA3 [7]: 13
– | COc1ccc(NC(=O)Nc2nc3nn(C)cc3c3nc(-c4ccco4)nn23)cc1 [Compound 43, 5-[[(4-Methoxyphenyl)amino]carbonyl]amino-8-methyl-2-(2-furyl)-pyrazolo[4,3-e]1,2,4-triazolo[1,5-c]pyrimidine] | – | – | – | – | – | Ki (rA1 adenosine receptor): > 10 µM; Ki (rA2A adenosine receptor): > 10 µM; Ki [7]: 0.0001 µM; rA1/hA3 [7]: >100,000; rA2A/hA3 [7]: >100,000

Structure (SMILES) | Ki [3] [µM] | Ki [1] [µM] | Ki [2] [µM] | Ki [6] [µM] | hA1/hA3 [6] | hA2A/hA3 [6] | other results
CN1CCN(S(=O)(=O)c2ccc(NC(=O)Nc3nc4nn(C)cc4c4nc(-c5ccco5)nn34)cc2)CC1 [Compound 105, N-[2-(2-furyl)-8-methyl-8H-pyrazolo[4,3-e][1,2,4]triazolo[1,5-c]pyrimidin-5-yl]-N′{-4-[(4-methylpiperazin-1-yl)sulfonyl]-phenyl}urea] | > 1 | > 1 | > 1 | 0.029 | 34.5 | 34.5 | hA2B/hA3 [6]: 34.5
Cn1cc2c(nc(NC(=O)Nc3ccc(S(=O)(=O)N4CCOCC4)cc3)n3nc(-c4ccco4)nc23)n1 [Compound 104] | > 10 | 0.726 | 1.4 | 0.00247 | 294 | 566 | hA2B/hA3 [6]: 4050
